Here are results for 2 molecules from ChEMBL document CHEMBL5329193, “Targeting Mycobacterium tuberculosis iron-scavenging tools: a recent update on siderophores inhibitors” (RSC Med Chem, 2023).

Values after ≈ are worked out from the molar mass of the structure shown.

Experiment [1] relates to Mycobacterium tuberculosis variant bovis. Nature of the experiment: Antimycobacterial activity against Mycobacterium bovis BCG assessed as reduction in microbial growth incubated for 15 days by resazurin based reduction assay. Conditions: 360 h, time 15 day. It is filed as functional. For orientation: The colour change of resazurin is a common sign of viable cells or microbes.

For experiment [2] the test system is unchanged. Nature of the experiment: Antimycobacterial activity against Mycobacterium bovis BCG ATCC 35734 assessed as inhibition of bacterial growth incubated for 5 days by broth microdilution method. In kind it is functional, organism-based. Conditions: BCG ATCC 35734, 120 h.
For experiment [3] the test system is unchanged. Nature of the experiment: Antitubercular activity against Mycobacterium bovis BCG assessed as bacterial growth inhibition incubated for 15 days by resazurin based reduction assay. In kind it is functional. Conditions: 360 h, time 15 day.

One may read the MIC99 as an inhibitory concentration at the 99% level, which refers to growth in some studies and to a panel of isolates in others. A word on the IC50: it is the concentration that inhibits the measured activity by half. Take `N#Cc1cc(OCCOc2ccccc2)cc(-c2ccc(C(=O)O)o2)c1`: the MIC99 in experiment [1] came out at 63 µM. In addition, the 50% inhibitory concentration (IC50) in experiment [2] stood at 12.1 µM.
For the molecule `N#Cc1cc(-c2ccc(C(=O)O)o2)cc(C(F)(F)F)c1`, the MIC99 in experiment [3] worked out at 125 µM (≈ 35.1 µg/mL).
